{"source": "patent US20040171511A1", "about": "“Allergen removing agent” (priority 2001, published 2004)", "description": "Component (c1-1) is preferably in a state that it is soluble in the allergen-removing agent.", "data": [{"compound": "CCCCCCCCCCCCCCCCO", "note": "[palmityl alcohol]", "values": [{"measurement": "solubility in component (a)", "value": "≥ 5", "unit": "g/100 g"}, {"measurement": "solubility in water", "value": "≤ 0.3", "unit": "g/100 g"}]}]}
